# Measured values published in patent publication US20090087894A1, “Method for improving enzymatic activity of glycosyltransferases” (Japan Tobacco Inc., priority 2004, published 2009).
# B1: 467-N2C0: recombinant JT-ISH-467 α2,3-sialyltransferase lacking the signal peptide region, expressed in E. coli (protein)
# chain: MFVFCKKIFFLIFISLMILGGCNSDSKHNNSDGNITKNKTIEVYVDRATLPTIQQMTQIINENSNNKKLISWSRYPINDETLLESINGSFFKNRPELIKSLDSMILTNEIKKVIINGNTLWAVDVVNIIKSIEALGKKTEIELNFYDDGSAEYVRLYDFSRLPESEQEYKISLSKDNIQSSINGTQPFDNSIENIYGFSQLYPTTYHMLRADIFETNLPLTSLKRVISNNIKQMKWDYFTTFNSQQKNKFYNFTGFNPEKIKEQYKASPHENFIFIGTNSGTATAEQQIDILTEAKKPDSPIITNSIQGLDLFFKGHPSATYNQQIIDAHNMIEIYNKIPFEALIMTDALPDAVGGMGSSVFFSLPNTVENKFIFYKSDTDIENNALIQVMIELNIVNRNDVKLISDLQ
# modifications: OTHER INFORMATION: /gene=“467-23ST” /product=“beta-galactoside-alpha2,3-sialyltransferase”
# notes: recombinant JT-ISH-467 α2,3-sialyltransferase lacking the signal peptide region, expressed in E. coli
# B2: 467-N0C0: recombinant full-length α2,3-sialyltransferase of Photobacterium phosphoreum JT-ISH-467 expressed in E. coli (protein)
# chain: B1 chain
# modifications: OTHER INFORMATION: /gene=“467-23ST” /product=“beta-galactoside-alpha2,3-sialyltransferase”
# notes: recombinant full-length α2,3-sialyltransferase of Photobacterium phosphoreum JT-ISH-467 expressed in E. coli
# B3: 224-N1C0: recombinant JT-ISH-224 α2,3-sialyltransferase lacking the signal peptide region, expressed in E. coli (protein)
# chain: MLVFCKKMFFSVFISLMILGGCNSDSNHNNSDGNITKNKTIEVYVDRATLPTIQQMTQIINENSNNKKLISWSRYPINDEELLESINGSFFKNNSELIKSLDSMILTNDIKKVIINGNTLWAADVVNIIKSIEAFGKKTEIELNFYDDGSAEYVRLYDFSKLPESEQEYKISLSKDNILSSINGTQPFENVVENIYGFSQLYPTTYHMLRADIFETNLPLRSLKGVLSNNIKQMKWDYFKTFNSQQKDKFYNFTGFNPDEIMEQYKASPNKNFIFVGTNSGTATAEQQIDILTEAKNPNSPIITKSIQGFDLFFKGHPSATYNKQIIDAHNMIEIYNKIPFEALIMTDALPDAVGGMGSSVFFSLPNTVENKFIFYKSDTDIENNALIQVMIELNIVNRNDVKLISDLQ
# modifications: OTHER INFORMATION: /gene=“224-23ST” /product=“beta-galactoside-alpha-2,3-sialyltransferase”
# notes: recombinant JT-ISH-224 α2,3-sialyltransferase lacking the signal peptide region, expressed in E. coli
# B4: FAJ-N0C0: recombinant full-length α2,3-sialyltransferase of Vibrio sp. JT-FAJ-16 expressed in E. coli (protein)
# chain: MKNIITKRMLIILSSLFTIIGCNNDNSTTTNNNAIEIYVDRATLPTIQQMTKIVSQKTSNKKLISWSRYPITDKSLLKKINAEFFKEQFELTESLKNIILSENIDNLIIHGNTLWSIDVVDIIKEVNLLGKNIPIELHFYDDGSAEYVRIYEFSKLPESEQKYKTSLSKNNIKFSIDGTDSFKNTIENIYGFSQLYPTTYHMLRADIFDTTLKINPLRELLSNNIKQMKWDYFKDFNYKQKDIFYSLTNFNPKEIQEDFNKNSNKNFIFIGSNSATATAEEQINIISEAKKENSSIITNSISDYDLFFKGHPSATFNEQIINAHDMIEINNKIPFEALIMTGILPDAVGGMGSSVFFSIPKEVKNKFVFYKSGTDIENNSLIQVMLKLNLINRDNIKLISDI
# modifications: OTHER INFORMATION: /gene=“FAJ16-23ST” /product=“beta-galactoside-alpha2,3-sialyltransferase”
# notes: recombinant full-length α2,3-sialyltransferase of Vibrio sp; JT-FAJ-16 expressed in E. coli
# What was measured:
# [1] = tested on: glycosyltransferase (crude α2,6-sialyltransferase) of P. damsela ATCC33539; assay: Effect of NaCl on activity of crude α2,6-sialyltransferase from P. damselae ATCC33539; format: biochemical, Photobacterium damselae
# Method: (§1) ATCC33539T and ATCC35083, which were strains belonging to Photobacterium damselae but different from JT0160, were cultured and the resulting cells were used to prepare crude enzyme solutions according to the procedure for preparing a crude enzyme solution of P. damselae JT0160 (Purification and characterization of a Marine bacterial β-Galactoside α2,6-Sialyltransferase from Photobacterium damselae JT0160 J. Biochem. 120, 104-110, 1996). These crude enzymes were used in the following experiment.
# (§2) The enzyme reaction was accomplished in 20 μl reaction solution containing CMP-^14C-NeuAc as a glycosyl donor substrate (50.066 nmol, 25000 cpm), lactose as a glycosyl acceptor substrate (1 mmol), glycosyltransferase derived from various strains (1 mU or less) and NaCl at a concentration of 0.5 M (30° C., 1 minute). After completion of the enzymatic reaction, the radioactivity of NeuAc which was transferred to lactose under the respective conditions was measured to calculate the enzyme activity, thereby studying the effect of NaCl on the enzyme activity in each test range. More specifically, after completion of the reaction, each reaction solution was supplemented with 1.98 ml of 5 mM phosphate buffer (pH 6.8) and applied to a AG1−×2Resin (PO4^3− form, 0.2×2 cm) column. […] The eluate (0 to 2 ml) from this column was measured for its radioactivity.
# [2] = tested on: glycosyltransferase (crude α2,6-sialyltransferase) of P. damsela ATCC35083; assay: Effect of NaCl on activity of crude α2,6-sialyltransferase from P. damselae ATCC35083; format: biochemical, Photobacterium damselae
# Method: as §1, §2
# [3] = target: T1, deletion mutant of recombinant α2,6-sialyltransferase; N2C1, derived from P. damselae JT0160 (Photobacterium damselae, UniProt O66375); assay: Effect of NaCl on enzyme activity of deletion mutant of recombinant α2,6-sialyltransferase N2C1; format: biochemical; details: 0.2 to 1.5 M NaCl in the reaction solution; FIG. 4
# T1 construct: lacks the N-terminal (Met) 107 amino acid residues and the C-terminal 176 amino acid residues; made in house; host or cells: E. coli, crude enzyme solution
# Method: The transformed E. coli cells were cultured at 30° C. at 180 rpm for 12 hours in L Broth (containing ampicillin at a final concentration of 0.2 mg/ml and IPTG at a final concentration of 1 mM), followed by centrifugation to collect the cells. The collected cells were suspended in 20 mM sodium cacodyrate buffer (pH 5.0) and then ultrasonicated at 4° C. to homogenize the cells, thereby preparing a crude enzyme solution containing a sialyltransferase protein from the N2C1 gene. […] This N2C1 gene-derived sialyltransferase protein was used in the following experiment.
# The enzyme reaction was accomplished in 20 μl reaction solution containing CMP-^14C-NeuAc as a glycosyl donor substrate (50.066 nmol, 25000 cpm), lactose as a glycosyl acceptor substrate (1 mmol), N2C1 (0.5 to 1.5 mU) and NaCl at a concentration varying from 0 to 2.5 M (30° C., 1 minute). After completion of the enzyme reaction, the radioactivity of NeuAc which was transferred to lactose under the respective conditions was measured to calculate the enzyme activity, thereby studying the effect of NaCl on the enzyme activity in each test range.
# More specifically, after completion of the reaction, each reaction solution was supplemented with 1.98 ml of 5 mM phosphate buffer (pH 6.8) and applied to a AG1−×2Resin (PO43-form, 0.2×2 cm) column. […] The eluate (0 to 2 ml) from this column was measured for its radioactivity.
# [4] = Confirmation of α2,3-sialyltransferase activity with pyridylaminated lactose as glycosyl acceptor, HPLC; format: biochemical; details: pyridylaminated lactose and CMP-sialic acid, 25° C.
# Description: Determination of the binding mode of sialic acid was accomplished by using a pyridylaminated sugar chain. The resulting enzyme was used to carry out an enzymatic reaction in the presence of a pyridylaminated sugar chain as a glycosyl acceptor substrate. The pyridylaminated sugar chain used for analysis was pyridylaminated lactose (Galβ1, 4Glc-PA, PA-Sugar Chain 026, Takara Bio Inc., Japan). As a standard, pyridylaminated α2,3sialyllactose (NeuAcα2,3Galβ1, 4Glc-PA, PA-Sugar Chain 029, Takara Bio Inc., Japan) was used. The glycosyl acceptor substrate, CMP-NeuAc and the enzyme were dissolved at 2.0 mM, 5.7 μM and about 20 mU/ml, respectively, in 25 μl of 20 mM cacodylate buffer (pH 6.0) or Bis-Tris buffer (pH 6.0), and then reacted at 25° C. for 3 to 18 hours. After completion of the reaction, the reaction solution was treated at 100° C. for 2 minutes to deactivate the enzyme, followed by HPLC to analyze the reaction product.
# The HPLC system used was, Shimadzu LC10A (Shimadzu Corporation, Japan) and the analytical column used was Takara PALPAK Type R (Takara Bio Inc., Japan). The column which had been equilibrated with 100 mM acetate-triethylamine (pH 5.0) containing 0.15% N-butanol was injected with the reaction solution diluted with Eluent A (100 mM acetate-triethylamine, pH 5.0). For elution of the pyridylaminated sugar chain, Eluent A (100 mM acetate-triethylamine, pH 5.0) and Eluent B (100 mM acetate-triethylamine containing 0.5% n-butanol, pH 5.0) were used to successively elute the pyridylaminated sugar chain with a linear gradient of 30% to 100% Eluent B (0 to 35 minutes) and then 100% Eluent B (35 to 50 minutes). The analysis was performed under the following conditions: flow rate: 1 ml/min, column temperature: 40° C., detection: fluorescence (Ex: 320 nm, Em: 400 nm).
# As in the case of Reference Example 1-1, pyridylaminated lactose was used as a glycosyl acceptor to carry out the enzyme reaction. After completion of the reaction, the reaction solution was thermally treated at 95° C. for 5 minutes to deactivate the enzyme, followed by HPLC analysis. It should be noted that the enzyme reaction was accomplished at 25° C. for 6 hours using pyridylaminated lactose and CMP-sialic acid dissolved at 2.0 μM and 5.7 μM, respectively, in 25 μl of 20 mM cacodylate buffer (pH 6.0) (Reaction 1). On the other hand, a control experiment (Reaction 2) was carried out using a reaction solution free from CMP-sialic acid. Further, to clarify the retention time of standards, the crude enzyme solution was deactivated by thermal treatment (95° C., 5 minutes) and tested in the presence of pyridylaminated lactose and pyridylaminated α2,3-sialyllactose.
# T1 sequence (O66375 entry or part of it, stated change not applied): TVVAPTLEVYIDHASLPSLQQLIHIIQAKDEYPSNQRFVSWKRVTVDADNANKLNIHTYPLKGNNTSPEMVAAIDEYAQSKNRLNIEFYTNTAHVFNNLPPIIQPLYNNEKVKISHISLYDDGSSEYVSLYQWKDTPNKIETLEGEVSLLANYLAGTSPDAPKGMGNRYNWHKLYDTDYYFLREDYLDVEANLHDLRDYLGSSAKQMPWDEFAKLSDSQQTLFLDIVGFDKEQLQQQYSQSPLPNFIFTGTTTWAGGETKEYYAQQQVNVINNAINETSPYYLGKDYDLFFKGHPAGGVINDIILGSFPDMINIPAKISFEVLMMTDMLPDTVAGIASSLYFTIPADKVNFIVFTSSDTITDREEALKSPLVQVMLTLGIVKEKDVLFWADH
molecule,measurement,setting,value
[Cl-].[Na+] [NaCl],Radioactivity,"[1]; +NaCl, 0.5 M, 30° C., 1 minute",11071
same,+NaCl/−NaCl,[1]; NaCl 0.5 M,1.2
same,Radioactivity,"[2]; +NaCl, 0.5 M, 30° C., 1 minute",9733
same,+NaCl/−NaCl,[2]; NaCl 0.5 M,1.3
same,enzyme activity compared to the absence of NaCl,[3],activated
B1,"α2,3-sialyltransferase activity (formation of pyridylaminated α2,3-sialyllactose)",[4],"had α2,3-sialyltransferase activity"
B2,"α2,3-sialyltransferase activity (formation of pyridylaminated α2,3-sialyllactose)",[4],"found to have α2,3-sialyltransferase activity"
B3,"α2,3-sialyltransferase activity (formation of pyridylaminated α2,3-sialyllactose)",[4],"a peak of pyridylaminated α2,3-sialyllactose was detected"
B4,"α2,3-sialyltransferase activity (formation of pyridylaminated α2,3-sialyllactose)",[4],"a peak of pyridylaminated α2,3-sialyllactose was detected"
